Series [1] is described as follows: Relaxation rate measurement (R1, R2) in PBS and in PBS solution of HSA. Type of series: physicochemical. The note with it: 293K. How it is done:
T1 measurement is carried out using an inversion recovery method at 1.5 T (64 MHz) in a variable inverse time (TI). MR images are obtained for 35 different TI values in a range of 50 to 1750 ms. A T1 relaxation time is obtained from a nonlinear least-squares fit of a signal strength measured at each TI value. For a T2 CPMG (Carr-Purcell-Meiboon-Gill) pulse sequence measurement, the measurement is adapted to a multi spin-echo measurement. 34 images are obtained at 34 different echo time (TE) values in a range of 10 to 1900 ms. The T2 relaxation time is obtained from a nonlinear least-squares fit of mean pixel values for multi spin-echo measurement at each echo time. Next, a relaxation rate (R1 and R2) is calculated as an inverse of a relaxation time per mM. The determined relaxation time (T1 and T2) and relaxation rate (R1 and R2) are subjected to an image processing to get a relaxation time map and relaxation rate respectively.
For comparison between the complexes 2a-e, there is no noticeable difference in R1's. The measurement is carried out for two different media, that is, PBS (pH=7.4) and PBS solution of HAS in order to indicate which blood-pool effect is expressed by the complexes 2a-e.

The nature of series [2]: Isothermal titration calorimeter (ITC), binding of Gd^3+ to ligand. The note with it: 25° C., pH = 4.5, read-out: Kd (dissociation constant). How it is done: In order to quantify binding isotherms of paramagnetic metal ions Gd^3+ with a ligand solution, an ITC test is executed at a VP-ITC isothermal titration microcalorimeter (Microcal, USA). Data collection, analysis and plotting are executed with help of software package Origin, version 8.0 from Microcal. A sample cell has a 1.43 mL volume. The cell is filled with a water-soluble buffer solution of the above compound 1a-e ligand (0.2 mM). A water-soluble buffer solution of Gd^3+ (1.0 mM) is input into a 300 μL continuous agitated (300 rpm) syringe and 10 μL aliquots thereof is injected into the cell. At a 3-mins interval, the cell is delivered over 20 s. Data points are collected on a 2 s basis. The measurement is executed at 25° C. All titrations are executed three times to secure data consistency and solution stability. These titration isotherms are integrated to find out an enthalpy change at each injection. In order to fit well with two mathematically different sets of site models, the titration isotherms are analyzed. Via a calorie measurement, parameters including a binding constant (Ka), a change in enthalpy (ΔH), a stoichiometry of binding (N) are calculated. Next, a free energy (ΔG) and an entropy change (ΔS) are calculated using a following complexation equation: Mn++nL↔MLn:ΔG=−RT·InKa=ΔH-TΔS,
where, R indicates a universal gas constant; T is Kelvin temperature.
On the technique in general: Isothermal titration calorimetry measures the heat released or taken up as one component is titrated into another.

Setting [3] is: PBS solution of 0.67 mM HSA, 64 MHz.

Four molecules from US10245328B2, “Gadolinium complex comprising DO3A-tranexamic acid conjugate” (KYUNGPOOK NATIONAL UNIVERSITY INDUSTRY-ACADEMIC COOPERATION …, priority 2014, dated 2019) can be followed below.

In series [1] (PBS pH 7.4, 64 MHz (1.5 T)), `O=C([O-])CN1CCN(CC(=O)[O-])CCN([C@H](CO)[C@H](O)CO)CCN(CC(=O)[O-])CC1.[Gd+3]` (racemic) [Gadovist, Gd-BT-DO3A, reference compound] showed an R1 of 4.38 ± 0.15 mM⁻¹ s⁻¹ and an R2 of 4.27 ± 0.30 mM⁻¹ s⁻¹. In series [1] (setting [3]), the “R1 in 0.67 mM HSA” value came to 4.81 ± 0.17 mM⁻¹ s⁻¹ and the “R2 in 0.67 mM HSA” value was determined as 5.54 ± 0.24 mM⁻¹ s⁻¹.

In general, Kd refers to the equilibrium constant for the complex coming apart. With `CCOC(=O)C1CCC(CNC(=O)CN2CCN(CC(=O)O)CCN(CC(=O)O)CCN(CC(=O)O)CC2)CC1` (stereo not shown) [1a], in series [2], the Kd turned out to be 19.3 µM. Still for that read-out and setting: the figure for `O=C(O)CN1CCN(CC(=O)O)CCN(CC(=O)NCC2CCC(C(=O)O)CC2)CCN(CC(=O)O)CC1` (stereo not shown) [1b] is 3.98 µM; for `NCCNC(=O)C1CCC(CNC(=O)CN2CCN(CC(=O)O)CCN(CC(=O)O)CCN(CC(=O)O)CC2)CC1` (stereo not shown) [1c] it is 16.8 µM.
